Results as given in PubChem BioAssay AID1963437 (Molecular Pharmacology Branch, DTP, NCI, 2024).

Tested on: OVCAR-8 complex spheroid, growth inhibition
Assay: Anticancer human tumor OVCAR-8 cell line growth inhibition [Asc];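 further: spheroids exposed to agents for 7 days before readout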;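 on viability, T/C: percent viability relative to DMSO vehicle wells taken as 100%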
Details: for IC50: curve of first compound; for viability, T/C: stronger effect = lower value; active means viability on the fitted dose curve at most 10% of control; inactive means the rest
Outline: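 Complex solid-tumor spheroids incorporating human endothelial and mesenchymal stem cells received single agents or combinations over half-log dilution ranges anchored to clinical Cmax.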

Cc1nc(N2CCC3(CC2)COC(C)C3N)c(CO)nc1Sc1ccnc(N)c1Cl (configuration not stated) + Cc1c(S(C)(=O)=O)c(-c2cc(F)cc(N3CCN(c4ccc(NS(=O)(=O)c5ccc(NC(CCN6CCC(C(=O)OCCCP(=O)(O)O)CC6)CSc6ccccc6)c(S(=O)(=O)C(F)(F)F)c5)cc4)CC3)c2)c(-c2ccc(Cl)cc2)n1C(C)C
inactive: viability, T/C (second compound 0.0316 µM, first compound 0.00949 µM) 97% | viability, T/C (second compound 0.0316 µM, first compound 0.03 µM) 96.6% | viability, T/C (second compound 0.0316 µM, first compound 0.0949 µM) 159% | viability, T/C (second compound 0.0316 µM, first compound 0.3 µM) 188% | viability, T/C (second compound 0.0316 µM, first compound 0.949 µM) 226% | viability, T/C (second compound 0.0316 µM, first compound 3 µM) 206% | viability, T/C (second compound 0.1 µM, first compound 0.00949 µM) 91.3% | viability, T/C (second compound 0.1 µM, first compound 0.03 µM) 148% | viability, T/C (second compound 0.1 µM, first compound 0.0949 µM) 152% | viability, T/C (second compound 0.1 µM, first compound 0.3 µM) 190% | viability, T/C (second compound 0.1 µM, first compound 0.949 µM) 212% | viability, T/C (second compound 0.1 µM, first compound 3 µM) 202% | viability, T/C (second compound 0.316 µM, first compound 0.00949 µM) 97.4% | viability, T/C (second compound 0.316 µM, first compound 0.03 µM) 132% | viability, T/C (second compound 0.316 µM, first compound 0.0949 µM) 176% | viability, T/C (second compound 0.316 µM, first compound 0.3 µM) 200% | viability, T/C (second compound 0.316 µM, first compound 0.949 µM) 231% | viability, T/C (second compound 0.316 µM, first compound 3 µM) 175% | viability, T/C (second compound 1 µM, first compound 0.00949 µM) 92.6% | viability, T/C (second compound 1 µM, first compound 0.03 µM) 139% | viability, T/C (second compound 1 µM, first compound 0.0949 µM) 176% | viability, T/C (second compound 1 µM, first compound 0.3 µM) 210% | viability, T/C (second compound 1 µM, first compound 0.949 µM) 205% | viability, T/C (second compound 1 µM, first compound 3 µM) 169% | viability, T/C (second compound 3.16 µM, first compound 0.00949 µM) 102% | viability, T/C (second compound 3.16 µM, first compound 0.03 µM) 139% | viability, T/C (second compound 3.16 µM, first compound 0.0949 µM) 182% | viability, T/C (second compound 3.16 µM, first compound 0.3 µM) 221% | viability, T/C (second compound 3.16 µM, first compound 0.949 µM) 167% | viability, T/C (second compound 3.16 µM, first compound 3 µM) 144% | viability, T/C (second compound 10 µM, first compound 0.00949 µM) 110% | viability, T/C (second compound 10 µM, first compound 0.03 µM) 152% | viability, T/C (second compound 10 µM, first compound 0.0949 µM) 177% | viability, T/C (second compound 10 µM, first compound 0.3 µM) 206% | viability, T/C (second compound 10 µM, first compound 0.949 µM) 174% | viability, T/C (second compound 10 µM, first compound 3 µM) 121%
> 3 µM: IC50 (second compound 0.0316 µM) | IC50 (second compound 0.1 µM) | IC50 (second compound 0.316 µM) | IC50 (second compound 1 µM) | IC50 (second compound 3.16 µM) | IC50 (second compound 10 µM)
